The target of assay [1] is porcine liver carboxylesterase (PLCE) (Sus scrofa, UniProt Q29550). The experiment in a line: biochemical. As to conditions: read-out: Relative Activity (%).
Assay [2] deals with human leukocyte elastase (huLE) (Homo sapiens, UniProt P08246). To be noted: 10 µM.
The next assay concerns the target T1, GS-7340 Ester Hydrolase (Homo sapiens, UniProt P10619).
T1 construct: from tissue; host or cells: human peripheral blood mononuclear cells (extract and column pools)
Put plainly: biochemical. As to conditions: read-out: IC50 (μM) GS-7340 Ester Hydrolase.

Broadly, the IC50 is the concentration needed to halve the response being measured.

Chain of porcine liver carboxylesterase (PLCE) (Q29550 19-566): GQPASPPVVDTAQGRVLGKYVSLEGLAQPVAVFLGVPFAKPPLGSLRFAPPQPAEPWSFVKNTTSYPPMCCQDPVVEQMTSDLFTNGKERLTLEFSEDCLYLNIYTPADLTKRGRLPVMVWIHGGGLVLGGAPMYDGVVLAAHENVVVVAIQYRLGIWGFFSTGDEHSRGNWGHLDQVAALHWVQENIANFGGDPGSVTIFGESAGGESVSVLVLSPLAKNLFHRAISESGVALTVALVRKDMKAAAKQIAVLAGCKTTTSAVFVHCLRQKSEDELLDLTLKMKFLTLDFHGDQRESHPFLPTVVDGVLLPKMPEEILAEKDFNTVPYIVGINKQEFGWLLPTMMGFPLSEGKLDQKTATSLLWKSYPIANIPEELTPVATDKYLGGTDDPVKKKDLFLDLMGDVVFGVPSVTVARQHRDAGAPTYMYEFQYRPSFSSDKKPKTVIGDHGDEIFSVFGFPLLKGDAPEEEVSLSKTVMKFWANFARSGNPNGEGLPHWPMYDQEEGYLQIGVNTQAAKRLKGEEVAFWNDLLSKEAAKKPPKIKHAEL
Chain of human leukocyte elastase (huLE) (P08246 30-267): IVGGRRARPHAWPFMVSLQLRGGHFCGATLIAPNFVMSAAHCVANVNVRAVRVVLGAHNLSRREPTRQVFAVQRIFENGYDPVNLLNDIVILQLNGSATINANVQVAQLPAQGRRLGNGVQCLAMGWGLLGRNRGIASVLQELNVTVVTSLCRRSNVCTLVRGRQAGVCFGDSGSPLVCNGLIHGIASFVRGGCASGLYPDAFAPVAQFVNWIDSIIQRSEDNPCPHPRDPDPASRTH
T1 sequence (P10619 29-326 limits assumed): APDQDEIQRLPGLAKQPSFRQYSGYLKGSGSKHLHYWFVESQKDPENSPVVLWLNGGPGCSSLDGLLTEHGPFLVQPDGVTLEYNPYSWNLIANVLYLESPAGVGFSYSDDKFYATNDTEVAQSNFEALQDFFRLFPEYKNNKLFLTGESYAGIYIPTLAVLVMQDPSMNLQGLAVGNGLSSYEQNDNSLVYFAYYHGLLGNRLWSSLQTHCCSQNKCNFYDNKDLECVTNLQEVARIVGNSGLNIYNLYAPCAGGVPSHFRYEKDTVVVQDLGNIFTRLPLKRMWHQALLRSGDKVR
T1 sequence (P10619 327-480 limits assumed): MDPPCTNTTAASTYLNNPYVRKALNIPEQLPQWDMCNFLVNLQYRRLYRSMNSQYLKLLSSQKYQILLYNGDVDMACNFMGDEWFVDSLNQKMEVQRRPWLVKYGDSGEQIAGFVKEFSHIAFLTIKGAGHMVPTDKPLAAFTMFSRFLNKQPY

For the compound `O=c1oc(Cl)c(Cl)c2ccccc12` [3,4-dichloroisocoumarin], in assay [1], the activity at 1 µM came to 100%, the activity at 10 µM amounted to 100%, the activity at 100 µM came out at 90% and the activity at 1000 µM worked out at 20%. Also, the “Relative Activity (%)” value in assay [2] was 25%. Also, the 50% inhibitory concentration (IC50) at GS-7340 Ester Hydrolase worked out at 4 µM.

(Values after patent US20060115815A1 (priority 2002, published 2006).)
